Laboratory results published in patent US10272117B2, “Methods of using an activator of cereblon for neural cell expansion and the treatment of central nervous system disorders” (Celgene Corporation, priority 2014, dated 2019).

Tested on: zebrafish embryos
Test: Quantitative PCR of gene expression in zebrafish embryos
Assay type: in vivo
Description: BRD7-knockdown zebrafish embryos show similar phenotypes as CRBN-overexpressing zebrafish embryos. For example, expression of HuC in untreated, CRBN-overexpressing, and BRD7-knockdown zebrafish embryos was compared by quantitative PCR. Quantitative PCR was performed as follows: 1.7 μg of random […] and oligo-dT primed cDNA synthesized by ReverTra Ace qPCR RT Kit (TOYOBO, Japan) (as template) were used for reverse transcription by THUNDERBIRD™ SYBR® qPCR Mix (Toyobo, Japan). 0.25 mM of each forward and reverse primers were used in the reaction, wherein the sequence of the forward primer was 5′-[…]-3′ (SEQ ID NO: 9); and the sequence of the reverse primer was 5′-[…]-3′ (SEQ ID NO: 10).
Expression of Pou5f1 (Oct3/4), c-Myc, Sox2, and Nanog in zebrafish embryos was analyzed by quantitative PCR. Quantitative RT (qRT)-PCR was performed as follows: 1.7 μg of random hexamer and oligo-dT primed cDNA synthesized by ReverTra Ace qPCR RT Kit (TOYOBO, Japan) (as template) were used for reverse transcription by THUNDERBIRD™ SYBR® qPCR Mix (Toyobo, Japan). 0.25 mM of each forward and reverse primers was used in the reaction. The sequences of primers for c-Myc are as follows: forward primer is 5′-[…]-3′ (SEQ ID NO: 15), and reverse primer is 5′-GTAAAACGACGGCCAGT-3′ (SEQ ID NO: 16). The sequences of primers for sox2 are as follows: forward primer is 5′-ACCCCGGAGGAAAACCAA-3′ (SEQ ID NO: 17), and reverse primer is 5′-CCCGGCAGGGTGTACTTG-3′ (SEQ ID NO: 18). The sequences of primers for nanog are as follows: forward primer is 5′-TACCCAACACACCAGCTTC-3′ (SEQ ID NO: 19), and reverse primer is 5′-GAAGGGTGTTTTTGGAGGA-3′ (SEQ ID NO: 20).
Expression of a pool of three genes, Ascl1, Brn2 (Pou3f2), and Myt1la, is sufficient to directly reprogram embryonic and postnatal fibroblasts into functional neurons. See, e.g., Vierbuchen and Wernig, Nat Biotechnol. 29:892-907 […]. […] Primer sequences for amplification for Ascl1a are as follows: forward primer is 5′-ACGAGCATGACGCCGTA-3′ (SEQ ID NO: 21), and reverse primer is 5′-[…]-3′ (SEQ ID NO: 22). Primer sequences for amplification for Pou3f2b are as follows: forward primer is 5′-[…]-3′ (SEQ ID NO: 23), and reverse primer is 5′-[…]-3′(SEQ ID NO: 24). Primer sequences for amplification for Myt1la are as follows: forward primer is 5′-[…]-3′ (SEQ ID NO: 25), and reverse primer is 5′-[…]-3′ (SEQ ID NO: 26). FIG. […]
Notch3 and Neuropilin2b (Nrp2b) are required for cell proliferation progression. Notch3 regulates the timing of neural differentiation from undifferentiated or immature cells, and Nrp2b regulates cell proliferation and remodeling in mesenchymal stem cells by cooperating with PDGF (platelet-derived growth factor). Therefore, expression of Notch3 and Neuropilin 2b (Nrp2b) was analyzed in untreated and CRBN-overexpressing zebrafish embryos by quantitative PCR. The primers used for Notch3 are as follows: the sequence for forward primer is 5′-[…]-3′ (SEQ ID NO: 27), and the sequence for reverse primer is 5′-[…]-3′ (SEQ ID NO: 28). The primers used for Nrp2b are as follows: the sequence of forward primer is 5′-[…]-3′ (SEQ ID NO: 29), and the sequence of reverse primer is 5′-[…]-3′ (SEQ ID NO: 30). FIG. 29A is a histogram showing the mRNA level of Notch3 and Nrp2b in untreated, CRBN-overexpressing, and thalidomide-treated zebrafish embryos at 11 hpf by quantitative PCR. As shown, expression of Notch3 in the CRBN-overexpressing embryos increased to 1.8-fold of the level in the untreated embryos at 11 hpf, and expression of Nrp2b in the CRBN-overexpressing embryos increased to 2.7-fold of the level in the untreated embryos at the same stage.
Elval3 (Huc) is a neural progenitor marker. Expression of Elavl3 (Huc) was also analyzed by quantitative PCR and in situ hybridization. […]

[1] = 11 hpf, compared to untreated embryos

Substance | expression of Ascl1 (change) (11 hpf) | expression of Brn2 (Pou3f2b) (change) (11 hpf) | expression of Myt1l (change) (11 hpf) | expression of Nanog (change) (11 hpf, FIG. 13) | expression of Pou5f1 (change) (11 hpf, FIG. 13) | expression of Zic3 (change) (11 hpf, FIG. 13) | HuC (Elavl3) expression level (11 hpf, fold of level in untreated embryos) | expression of Ascl1 (change) (28 hpf) | expression of Myt1la (change) (28 hpf) | expression of Pou3f3a (change) (28 hpf) | Nanog expression [1] | Pou5f1 expression [1] | Sox2 expression [1] | Zic3 expression [1] | expression of Ascl1a (change) (23 hpf) | expression of Pou3f2b (change) (23 hpf) | expression of Nanog (change) (28 hpf) | expression of Pou3f2b (change) (28 hpf) | expression of Sox2 (change) (28 hpf) | expression of c-Myc (change) (28 hpf)
5′-TGTGTTTCTTGTGCTTTTTGCCCAT-3′ (all phosphorodiamidate morpholino (PMO)) [BRD7-knockdown, 25-mer antisense morpholino oligonucleotide (AMO) used for the BRD7 gene knockdown] | increased | increased | increased | increased | significantly increased | increased | 1.7 fold | increased | increased | increased | – | – | – | – | – | – | – | – | – | –
5′-AGAGCTGTAGCTGGTTCCCCATTTC-3′ (all phosphorodiamidate morpholino (PMO)) [CRBN-knockdown, 25-mer antisense morpholino oligonucleotide (AMO) used for the CRBN gene knockdown, reference compound] | – | – | – | decreased | decreased | decreased | – | – | – | – | 0.8 fold | 0.8 fold | 0.7 fold | 0.8 fold | decreased | decreased | – | – | – | –
5′-TTCCTGTGCCTCCTCAGTCTCCATC-3′ (all phosphorodiamidate morpholino (PMO)) [Ikaros-knockdown, 25-mer antisense morpholino oligonucleotide (AMO) used for the Ikaros gene knockdown] | – | – | – | – | – | – | – | increased | increased | increased | – | – | – | – | increased | increased | activated | increased | activated | activated
